Test results taken from patent publication US20190337924A1, “SUBSTITUTED HYDANTOIN AND THIOHYDANTOIN DERIVATIVES AS ANDROGEN RECEPTOR ANTAGONISTS” (Janssen Pharmaceutica NV, priority 2016, published 2019).
pIC50: −log10 of the molar value. Counter-ions that a name gives are not always drawn. Like-named read-outs stand apart in the source and are kept apart here.

Biological target: T1, wild-type Androgen Receptor (AR-wt) (Homo sapiens, UniProt P10275)
T1 construct: expressed in transfected cells; host or cells: LNCaP
T1 sequence (P10275 1-920): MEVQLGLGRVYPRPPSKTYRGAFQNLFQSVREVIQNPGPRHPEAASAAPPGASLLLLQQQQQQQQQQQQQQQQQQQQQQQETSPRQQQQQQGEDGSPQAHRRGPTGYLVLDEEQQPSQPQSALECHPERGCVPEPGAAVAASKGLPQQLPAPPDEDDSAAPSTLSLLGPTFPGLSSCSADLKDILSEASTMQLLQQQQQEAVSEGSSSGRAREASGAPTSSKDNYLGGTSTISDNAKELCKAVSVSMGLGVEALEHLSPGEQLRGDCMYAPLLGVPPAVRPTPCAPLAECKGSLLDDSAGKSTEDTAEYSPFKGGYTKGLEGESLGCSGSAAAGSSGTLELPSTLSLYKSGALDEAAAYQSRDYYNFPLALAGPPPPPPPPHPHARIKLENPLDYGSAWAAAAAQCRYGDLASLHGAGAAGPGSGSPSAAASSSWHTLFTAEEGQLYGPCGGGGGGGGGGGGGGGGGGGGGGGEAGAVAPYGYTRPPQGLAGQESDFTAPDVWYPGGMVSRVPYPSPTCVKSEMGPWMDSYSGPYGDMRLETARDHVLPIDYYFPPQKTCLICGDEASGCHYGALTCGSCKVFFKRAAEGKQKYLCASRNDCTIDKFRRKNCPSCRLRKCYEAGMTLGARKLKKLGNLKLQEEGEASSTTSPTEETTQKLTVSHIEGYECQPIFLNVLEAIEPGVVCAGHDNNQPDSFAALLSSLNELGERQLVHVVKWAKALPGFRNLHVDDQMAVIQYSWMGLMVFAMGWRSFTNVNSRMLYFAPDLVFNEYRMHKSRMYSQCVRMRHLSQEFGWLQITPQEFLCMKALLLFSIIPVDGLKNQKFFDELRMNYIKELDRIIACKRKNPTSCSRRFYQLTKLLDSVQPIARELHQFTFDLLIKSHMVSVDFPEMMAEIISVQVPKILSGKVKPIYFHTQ
Test: AR reporter assay, LNCaP-AR-wt ANT (antagonist mode)
Type: cell-based
Conditions: for IC50: antagonist mode, 400 pM R-1881 challenge, luciferase reporter, -Log10(IC50 in Molar), read-out: LNCaP-AR-wt ANT pIC50 (converted); for Emax: read-out: LNCaP-AR-wt ANT MAX % Inh
Source text: LNCaP AR (cs) and LNCaP F876L luciferase cell lines were generated by transduction of each cell line (description of cell line generation Joseph J D, Lu N, Qian J, Sensintaffar J, Shao G, Brigham D, Moon M, Maneval E C, Chen I, Darimont B, Hager J H. A clinically relevant androgen receptor mutation confers resistance to second-generation antiandrogens enzalutamide and ARN-509. Cancer Discov 2013; 3:1020-1029) with an Androgen Response Element Firefly Luciferase lentiviral construct at an MOI (multiplicity of infection) of 50 following the manufacturer's instructions (Qiagen). A stable pooled-population cell line was generated using puromycin (Life Technologies) selection at 1:10,000 v/v. The protocol below was used for both cell lines and for testing of the compounds of Formula (I) of the present invention.
LNCaP cells were grown to about 80% confluence, media removed and cells rinsed in Hank's balanced salt solution prior to separation from the plate with 0.05% Trypsin EDTA. Cells were lifted and trypsin negated in complete CSS (charcoal stripped serum) culture media. CSS was maintained on cells for 24 h prior to assay, at which time 5,000 cells/[…] were seeded in Greiner 384 well White/White Tissue Culture Treated Plates and incubated for a further 1-2 hours at 37° C., 5% CO2, prior to addition of 10 μL of 4× Test Compounds (compounds described herein) or Assay Controls (all diluted in complete media containing 10% css). A further 10 μL of 4× R-1881 Agonist Challenge (antagonist assay) or Buffer (agonist assay) was then added (all diluted in complete media containing 10% css). Agonist challenge was at 400 pM for WT assay and 600 pM for F876L assay. Plates containing cells and compounds herein were incubated for a further 20-24 hours at 37° C., 5% CO2 before addition of 40 μL/well of Steady-Glo Luciferase Assay System Reagent (Promega#E2520). After 1 h, plates were read for luminescence on a BMG Pherastar.
Agonist challenge: R-1881 (Metribolone)—Agonist
Antagonist control (low control): 5-(5-(4-((1-Methylpiperidin-4-yl)oxy)phenyl)-8-oxo-6-thioxo-5,7-diazaspiro[3.4]octan-7-yl)-3-(trifluoromethyl)picolinonitrile (WO 2011/103202, EXAMPLE 19, Compound 129, CAS #1332390-06-3).
(1−(Sample RLU−Ave Low Control RLU[10 μM Antagonist Control])/(Ave High Control RLU [400 pM R-1881]−Ave Low Control RLU[10 μM Antagonist Control]))*100.
EC/IC50 calculations were achieved utilizing calculated RLU data and data fitting macros. Data were fit using least-squares methods to the following formula: […]
As used herein: • pIC50 is defined as −Log10(IC50 expressed in [Molar]). • pEC50 is defined as −Log10(EC50 expressed in [Molar]). • MAX % Inh is defined as the maximum % inhibition of R1881 control response observed for a compound over the tested concentration range. • MAX % Stim is defined as the maximum % stimulation (agonist response) observed for a compound over the tested concentration range. • LNCaP-AR-wt ANT refers to the reporter assay using LNCaP cells stably transfected with the Androgen Response Element Firefly Luciferase lentiviral construct and wild-type Androgen Receptor (AR-wt) in Antagonist mode. • LNCaP-AR-wt AG refers to the reporter assay using LNCaP cells stably transfected with the Androgen Response Element Firefly Luciferase lentiviral construct and wild-type Androgen Receptor (AR-wt) in Agonist mode. • LNCaP-AR-F876L ANT refers to the reporter assay using LNCaP cells stably transfected with the Androgen Response Element Firefly Luciferase lentiviral construct and F876L mutant Androgen Receptor (AR-F876L) in Antagonist mode. • LNCaP-AR-F876L AG refers to the reporter assay using LNCaP cells stably transfected with the Androgen Response Element Firefly Luciferase lentiviral construct and F876L mutant Androgen Receptor (AR-F876L) in Agonist mode.

Compound	IC50 [nM]	Emax [%]	pIC50
Cc1cc(N2C(=O)C3(CCC3)N(c3ccc(OC4CCN(C)CC4)nc3)C2=S)ccc1C#N [Compound 18, 2-Methyl-4-(5-(6-((1-methylpiperidin-4-yl)oxy)pyridin-3-yl)-8-oxo-6-thioxo-5,7-diazaspiro[3.4]octan-7-yl)benzonitrile]	36.3	99.4	
COc1cc(N2C(=O)C3(CCC3)N(c3ccc(OC4CCN(C)CC4)cc3)C2=S)ccc1C#N [Compound 19, 2-Methoxy-4-(5-(4-((1-methylpiperidin-4-yl)oxy)phenyl)-8-oxo-6-thioxo-5,7-diazaspiro[3.4]octan-7-yl)benzonitrile]	141	105	
COc1cc(N2C(=O)C3(CCC3)N(c3ccc(OC4CCN(C)CC4)nc3)C2=S)ccc1C#N [Compound 20, 2-Methoxy-4-(5-(6-((1-methylpiperidin-4-yl)oxy)pyridin-3-yl)-8-oxo-6-thioxo-5,7-diazaspiro[3.4]octan-7-yl)benzonitrile]	214	100	
N#Cc1ccc(N2C(=O)C3(CCC3)N(c3ccc(OC4CCNCC4)cc3)C2=S)cc1Cl [Compound 21, 2-Chloro-4-(8-oxo-5-(4-(piperidin-4-yloxy)phenyl)-6-thioxo-5,7-diazaspiro[3.4]octan-7-yl)benzonitrile]	331	106	
CN1CCC(Oc2ccc(N3C(=S)N(c4ccc(C#N)c(Cl)c4)C(=O)C34CCC4)cc2)CC1 [Compound 22, 2-Chloro-4-(5-(4-((1-methylpiperidin-4-yl)oxy)phenyl)-8-oxo-6-thioxo-5,7-diazaspiro[3.4]octan-7-yl)benzonitrile]		98.4	6.61
N#Cc1ccc(N2C(=O)C3(CCC3)N(c3ccc(OC4CCNCC4)nc3)C2=S)cc1Cl [Compound 23, 2-Chloro-4-(8-oxo-5-(6-(piperidin-4-yloxy)pyridin-3-yl)-6-thioxo-5,7-diazaspiro[3.4]octan-7-yl)benzonitrile hydrochloride]		105	7.17
CN1CCC(Oc2ccc(N3C(=S)N(c4ccc(C#N)c(Cl)c4)C(=O)C34CCC4)cn2)CC1 [Compound 24, 2-Chloro-4-(5-(6-((1-methylpiperidin-4-yl)oxy)pyridin-3-yl)-8-oxo-6-thioxo-5,7-diazaspiro[3.4]octan-7-yl)benzonitrile hydrochloride]		102	7.02
